In patent US9695155B2, “Herbicidal substituted pyrimidinyloxy benzene compounds” (E. I. DU PONT DE NEMOURS AND COMPANY, priority 2013, dated 2017):

Legend:
morningglory [1] = experiment: Test C postemergence; format: in vivo, Ipomoea coccinea; conditions: for Plant response rating (0 to 100), Morningglory: postemergence; for Plant response rating, Morningglory: Postemergence, scale 0 to 100 (0 no effect, 100 complete control)
Procedure, shortened: (§1)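 Greenhouse herbicide screen. Pre: seeded loam/sand, sprayed at planting. Post: 1–4 leaf plants (2–18 cm) in peat-based mix. Formulation: solvent mixture + surfactant, non-phytotoxic. Readout: visual % control vs untreated, 13–15 d; dash = not tested.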

barnyardgrass [2] = experiment: Test A postemergence; format: in vivo, Echinochloa crus-galli
Procedure, shortened: (§2)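 Visual 0–100 rating (100 = complete control) taken about 10 d post-treatment relative to untreated checks. Preemergence: directed soil spray on sown loam/sand pots. Postemergence: seedlings 2–10 cm, 1–2 leaf. Non-phytotoxic solvent formulation with surfactant.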

corn = experiment: Test A postemergence; format: in vivo, Zea mays
Procedure, shortened: as §2

morningglory [3] = experiment: Test A postemergence; format: in vivo, Ipomoea spp.
Procedure, shortened: as §2

Heteranthera limosa = experiment: Test B flooded paddy test; format: in vivo; conditions: Flood, 250 g ai/ha; 0 to 100 scale where 0 is no effect and 100 is complete control
Procedure, shortened: (§3)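 Visual ratings on a 0 to 100 scale, where 100 means complete control, compared treated plants with controls after 13 to 15 days in a greenhouse. Treatment went into paddy water 3 cm deep over the soil, applied to plants at the 2-leaf stage.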

giant foxtail = experiment: Test A postemergence; format: in vivo, Setaria faberii
Procedure, shortened: as §2

chickweed = experiment: Test C postemergence; format: in vivo, Stellaria media; conditions: for Plant response rating, Chickweed: Postemergence
Procedure, shortened: as §1

galium = experiment: Test C postemergence; format: in vivo, Galium aparine; conditions: for Plant response rating, Galium: Postemergence
Description: Seeds of plant species selected from blackgrass (Alopecurus myosuroides), Italian ryegrass (Lolium multiflorum), wheat, winter (winter wheat, Triticum aestivum), galium (catchweed bedstraw, Galium aparine), corn (Zea mays), large (Lg) crabgrass (Digitaria sanguinalis), giant foxtail (Setaria faberii), johnsongrass (Sorghum halepense), lambsquarters (Chenopodium album), morningglory (Ipomoea coccinea), yellow nutsedge (Cyperus esculentus), pigweed (Amaranthus retroflexus), ragweed (common ragweed, Ambrosia elatior), soybean (Glycine max), barnyardgrass (Echinochloa crus-galli), oilseed rape (Brassica napus), waterhemp (common waterhemp, Amaranthus rudis), kochia (Kochia scoparia), wild oat (Avena fatua), surinam grass (Brachiaria decumbens), foxtail, green (green foxtail, Setaria viridis), goosegrass (Eleusine indica), bromegrass, downy (downy bromegrass, Bromus tectorum), nightshade (eastern black nightshade, Solanum ptycanthum), cocklebur (common cocklebur, Xanthium strumarium), cupgrass, woolly (woolly cupgrass, Eriochloa villosa), bermudagrass (Cynodon dactylon), sunflower, (common oilseed sunflower, Helianthus annuus), Russian thistle (Salsola kali), and velvetleaf (Abutilon theophrasti) were planted into a blend of loam soil and sand and treated preemergence with test chemicals formulated in a non-phytotoxic solvent mixture which included a surfactant.
At the same time, plants selected from these crop and weed species and also barley, winter (winter barley, Hordeum vulgare), windgrass (Apera spica-venti), chickweed (common chickweed, Stellaria media), deadnettle (henbit deadnettle, Lamium amplexicaule), and canarygrass (littleseed canarygrass, Phalaris minor) were planted in pots containing Redi-Earth® planting medium (Scotts Company, 14111 Scottslawn Road, Marysville, Ohio 43041) comprising spaghnum peat moss, vermiculite, wetting agent and starter nutrients and treated with postemergence applications of test chemicals formulated in the same manner. Plants ranged in height from 2 to 18 cm (1- to 4-leaf stage) for postemergence treatments. Treated plants and controls were maintained in a greenhouse for 13 to 15 days, after which time all species were compared to controls and visually evaluated. Plant response ratings, summarized in Table C, are based on a scale of 0 to 100 where 0 is no effect and 100 is complete control. A dash (-) response means no test result.

velvetleaf = experiment: Test A postemergence; format: in vivo, Abutilon theophrasti
Procedure, shortened: as §2

barnyardgrass [4] = experiment: Test B flooded paddy test; format: in vivo, Echinochloa crus-galli; conditions: Flood, 250 g ai/ha; 0 to 100 scale where 0 is no effect and 100 is complete control
Procedure, shortened: as §3

large (Lg) crabgrass = experiment: Test A postemergence; format: in vivo, Digitaria sanguinalis
Procedure, shortened: as §2

[5] = 1000 g ai/ha, 0 to 100 scale, 0 no effect, 100 complete control
[6] = 16 g ai/ha, postemergence, visual rating, scale 0 to 100 (0 no effect, 100 complete control), 13 to 15 days
[7] = 31 g ai/ha, scale 0 to 100 (0 no effect, 100 complete control), 13 to 15 days
[8] = 62 g ai/ha, scale 0 to 100 (0 no effect, 100 complete control)
[9] = 125 g ai/ha, 0 to 100 scale where 0 is no effect and 100 is complete control
[10] = 500 g ai/ha, 0 to 100 scale, 0 no effect, 100 complete control
[11] = 500 g ai/ha, 0 to 100 scale where 0 is no effect and 100 is complete control

Clc1cnc(Oc2cccc(Br)c2-n2cc(Br)cn2)nc1 [Compound 65]
Plant response rating (0 to 100), Morningglory (morningglory [1]; 125 g ai/ha): 95 | Plant response rating, Morningglory (morningglory [1]; 31 g ai/ha, 13 to 15 days): 30 | Plant response rating, Morningglory (morningglory [1]; 62 g ai/ha): 65 | Plant response rating, Barnyardgrass (barnyardgrass [2]; [5]): 100 | Plant response rating, Corn (corn; [5]): 70 | Plant response rating, Morningglory (morningglory [3]; [5]): 100 | Plant response rating, Ducksalad (Heteranthera limosa): 95 | Plant response rating, Foxtail, Giant (giant foxtail; [5]): 100 | Chickweed plant response rating (chickweed; [6]): 60 | Plant response rating (0 to 100), Chickweed (chickweed; 125 g ai/ha, postemergence): 98 | Plant response rating, Chickweed (chickweed; [7]): 50 | Plant response rating, Chickweed (chickweed; [8]): 70 | Galium plant response rating (galium; [6]): 100 | Plant response rating (0 to 100), Galium (galium; 125 g ai/ha, postemergence): 98 | Plant response rating, Galium (galium; [7]): 50 | Plant response rating, Galium (galium; [8]): 85 | Plant response rating, Velvetleaf (velvetleaf; [5]): 100 | Plant response rating, Barnyardgrass (barnyardgrass [4]): 0 | Plant response rating, Crabgrass, Large (large (Lg) crabgrass; [5]): 100

N#Cc1cccc(Oc2ncc(Cl)cn2)c1-n1cnc(Br)c1 [Compound 74]
Plant response rating (0 to 100), Morningglory (morningglory [1]; 125 g ai/ha): 75 | Plant response rating (0 to 100), Morningglory (morningglory [1]; 250 g ai/ha): 85 | Plant response rating, Morningglory (morningglory [1]; 31 g ai/ha, 13 to 15 days): 60 | Plant response rating, Morningglory (morningglory [1]; 62 g ai/ha): 75 | Plant response rating, Barnyardgrass (barnyardgrass [2]; [9]): 90 | Plant response rating, Barnyardgrass (barnyardgrass [2]; [10]): 90 | Plant response rating, Corn (corn; [9]): 30 | Plant response rating, Corn (corn; [10]): 70 | Plant response rating, Morningglory (morningglory [3]; [9]): 80 | Plant response rating, Morningglory (morningglory [3]; [11]): 100 | Plant response rating, Ducksalad (Heteranthera limosa): 40 | Plant response rating, Foxtail, Giant (giant foxtail; [9]): 80 | Plant response rating, Foxtail, Giant (giant foxtail; [11]): 90 | Plant response rating (0 to 100), Chickweed (chickweed; 125 g ai/ha, postemergence): 50 | Plant response rating (0 to 100), Chickweed (chickweed; 250 g ai/ha, postemergence): 50 | Plant response rating, Chickweed (chickweed; [7]): 25 | Plant response rating, Chickweed (chickweed; [8]): 30 | Plant response rating (0 to 100), Galium (galium; 125 g ai/ha, postemergence): 65 | Plant response rating (0 to 100), Galium (galium; 250 g ai/ha, postemergence): 65 | Plant response rating, Galium (galium; [7]): 40 | Plant response rating, Galium (galium; [8]): 55 | Plant response rating, Velvetleaf (velvetleaf; [9]): 90 | Plant response rating, Velvetleaf (velvetleaf; [11]): 100 | Plant response rating, Barnyardgrass (barnyardgrass [4]): 0 | Plant response rating, Crabgrass, Large (large (Lg) crabgrass; [9]): 70 | Plant response rating, Crabgrass, Large (large (Lg) crabgrass; [10]): 90
